{"source": "paper PMC8617031", "about": "“Development of a BCL-xL and BCL-2 dual degrader with improved anti-leukemic activity,” (Nature Communications, 2021)", "key": {"[1]": {"test_system": "Flag-BCL-xL WT or mutants", "experiment": "Polyubiquitination assay (Flag IP, HA-Ub blot), BCL-xL", "assay_type": "cell-based, human", "details": "293T cells, MG132 10 µM pretreatment, 753b 0.1 µM, 5 h", "source_text": "K16-only, K20-only, and K87-only represent that all the surface lysines on BCL-xL are mutated to arginines except K16, K20, and K87, respectively. Representative immunoblots of Flag-BCL-xL WT and mutants are shown in the top panel. […] K17R and K22R represents that K17 and K22 on BCL-2 are respectively mutated to arginine; K17/22R means both K17 and K22 on BCL-2 are mutated to arginine. Representative immunoblots of Flag-BCL-2 WT and mutants are shown in the top panel. The quantification of the relative Flag-BCL-xL or Flag-BCL-2 protein content in the immunoblots is presented as mean values ± s.e.m. (n = 3 biologically independent experiments) in the bottom panel. […] After 36 h, cells were pre-treated with MG132 (10 µM) for 2 h and then treated with or without 753b (0.1 µM for BCL-xL and 1 uM for BCL-2) for 5 h. The Flag-tagged proteins were immunoprecipitated (IP) and immunoblotted with HA or Flag antibody. The input results are shown in Supplementary Fig. 9. Data are a representative of two independent experiments. Source data are provided as a Source data file.\nProteins were extracted by using IP lysis buffer (Cat. No. 87788, Thermal Fisher Scientific) and IP was performed using Anti-FLAG M2 Magnetic Beads (Cat. No. M8823, Sigma-Aldrich) according to the manufacturer’s protocol. […]"}, "BCL-xL": {"target": "T1, BCL-xL (Homo sapiens, UniProt Q07817)", "T1 construct": "endogenous in cells", "T1 sequence (Q07817 whole entry)": "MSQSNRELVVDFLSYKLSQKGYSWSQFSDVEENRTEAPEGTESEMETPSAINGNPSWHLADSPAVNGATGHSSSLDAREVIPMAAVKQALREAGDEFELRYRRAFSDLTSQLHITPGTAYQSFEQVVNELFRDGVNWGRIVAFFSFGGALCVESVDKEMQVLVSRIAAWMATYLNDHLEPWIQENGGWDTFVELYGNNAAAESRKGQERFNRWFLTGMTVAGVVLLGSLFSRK", "experiment": "BCL-xL degradation by western blot in human platelets", "assay_type": "cell-based", "details": "Supplementary Fig. 12a", "protocol": "Cells were collected, washed once with ice-cold phosphate-buffered saline, pH 7.2 (PBS, cat. no. 20012027; Thermo Fisher Scientific) and lysed in RIPA lysis buffer (Cat. No. BP-115DG, Boston Bio Products, Ashland, MA, USA) supplemented with protease and phosphatase inhibitor cocktails (Cat. No. PPC1010, Sigma-Aldrich, St. Louis, MO, USA) through sonication. The samples were centrifuged at 14,000 r.p.m. for 5 min and the supernatants were transferred into a new tube. The protein concentration in the supernatants was determined using the Pierce BCA protein Assay kit (cat. no. 23225, Thermo Fisher Scientific). The protein concentration was normalized, and the samples were reduced in 4× Laemmli’s SDS-sample buffer (cat. no. BP-110R, Boston Bio Products) and denatured at 95 °C for 5 min. […] Following sufficient washing with TBST, the membranes were exposed with chemiluminescent HRP substrate (cat. no. WBKLS0500, MilliporeSigma), and the signal was detected using the ChemiDoc MP Imaging System (Bio-Rad) and quantified using the ImageJ (v1.53a) software from NIH. […]"}}, "data": [{"smiles": "Cc1ncsc1-c1ccc([C@H](C)NC(=O)[C@@H]2C[C@@H](O)CN2C(=O)[C@@H](NC(=O)CCCCCCC(=O)N2CCN(C[C@]3(C)CCC(c4ccc(Cl)cc4)=C(CN4CCN(c5ccc(C(=O)NS(=O)(=O)c6ccc(N[C@H](CCN7CCOCC7)CSc7ccccc7)c(S(=O)(=O)C(F)(F)F)c6)cc5)CC4)C3)CC2)C(C)(C)C)cc1", "note": "[753b]", "values": [{"measurement": "polyubiquitination of BCL-xL WT and mutants (in words)", "setting": "[1]", "value": "induces polyubiquitination of WT, K20-only, and K87-only BCL-xL, but not K16-only BCL-xL"}, {"measurement": "BCL-xL degradation in human platelets (in words)", "setting": "BCL-xL", "value": "failed to induce BCL-xL degradation in human platelets"}]}]}
